{
  "source": "patent US7271148B2",
  "about": "“Inhibition of cellular proteases” (The Board of Regents of The University of Texas System, priority 1999, dated 2007)",
  "key": {"μ-calpain": {"molecular_target": "T1, μ-calpain (Homo sapiens, UniProt P07384)", "T1 construct": "purchased Calbiochem (San Diego, Calif.)", "T1 sequence (P07384 1-714)": "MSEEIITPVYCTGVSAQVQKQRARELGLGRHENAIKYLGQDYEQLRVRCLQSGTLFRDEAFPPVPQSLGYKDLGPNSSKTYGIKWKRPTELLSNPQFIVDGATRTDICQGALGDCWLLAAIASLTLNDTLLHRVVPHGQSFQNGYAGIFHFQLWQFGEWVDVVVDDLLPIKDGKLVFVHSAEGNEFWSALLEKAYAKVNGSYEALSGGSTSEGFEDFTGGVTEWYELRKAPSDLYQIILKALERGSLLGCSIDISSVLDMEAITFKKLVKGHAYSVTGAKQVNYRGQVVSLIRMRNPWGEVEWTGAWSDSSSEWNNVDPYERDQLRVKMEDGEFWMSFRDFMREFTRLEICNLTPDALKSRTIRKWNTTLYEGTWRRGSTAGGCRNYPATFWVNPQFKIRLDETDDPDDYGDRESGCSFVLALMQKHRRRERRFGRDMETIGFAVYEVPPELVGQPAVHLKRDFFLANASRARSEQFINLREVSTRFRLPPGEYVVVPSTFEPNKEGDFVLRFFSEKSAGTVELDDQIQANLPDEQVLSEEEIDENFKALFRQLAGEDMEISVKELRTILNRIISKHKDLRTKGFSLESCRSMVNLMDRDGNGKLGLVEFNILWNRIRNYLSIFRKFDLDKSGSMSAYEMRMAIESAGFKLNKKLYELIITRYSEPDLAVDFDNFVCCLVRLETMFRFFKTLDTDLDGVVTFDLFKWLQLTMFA", "T1 sequence (P04632 1-268 partner)": "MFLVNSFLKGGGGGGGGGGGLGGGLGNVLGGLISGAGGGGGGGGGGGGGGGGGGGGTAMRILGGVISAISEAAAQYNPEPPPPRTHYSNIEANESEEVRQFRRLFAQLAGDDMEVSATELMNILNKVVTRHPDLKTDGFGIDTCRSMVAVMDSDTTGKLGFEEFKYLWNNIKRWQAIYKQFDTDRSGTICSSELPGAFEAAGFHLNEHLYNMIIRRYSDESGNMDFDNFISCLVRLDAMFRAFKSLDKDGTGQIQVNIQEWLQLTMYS", "assay": "Cleavage of purified recombinant p21cip1 by purified μ-calpain", "type": "biochemical", "conditions": "E64d 100 μM; 0.4 μg p21^cip1, 0.004 units μ-calpain, 30 min at 30° C.; Western blot (FIG. 19)", "method": "(§1) Cleavage of p21^cip1 by calpain. Recombinant p21^cip1 was provided by Harper (37) or Ke (47), and was also prepared using the expression plasmid pET-p21 (37) according to the published methods (30). To evaluate the effect of calpains on p21^cip1, 400 ng of purified recombinant p21^cip1 was incubated with 0.004 units of either pure μ-calpain or m-calpain at 30° C. for 30 minutes in 40 μl of cleavage buffer, containing 25 mM Tris-HCl (pH 7.5), 100 mM NaCl, 3 mM DTT and 5 mM CaCl2 (44). EDTA was added to 10 mM to stop the reaction. An equal volume of 2×SDS gel-loading buffer (18) was mixed with the digestion mixture and the mixture was immediately boiled for 5 min. The digestion products were evaluated by Western blot analysis or SDS-PAGE and coomassie brilliant blue staining.\nFIGS. 19 and 20. Cleavage of purified recombinant p21^cip1 by purified ubiquitous calpains. 19. p21^cip1 (0.4 μg) was incubated with μ-calpain (0.004 units) for 30 min at 30° C. in the presence or absence of E64d (100 μM) and the resulting products were analyzed by Western blot analysis, as described in Materials and Methods 20. p21^cip1 (4 μg) or casein (3 μg) was incubated with 0.04 units of μ-calpain or m-calpain for 30 min at 30° C. and the products of the digestion were examined by SDS-PAGE and coomassie brilliant blue staining. […]"}, "m-calpain": {"molecular_target": "T2, m-calpain (Homo sapiens, UniProt P17655)", "T2 construct": "purchased Sigma (St. Louis, Mo.)", "T2 sequence (P17655 1-700)": "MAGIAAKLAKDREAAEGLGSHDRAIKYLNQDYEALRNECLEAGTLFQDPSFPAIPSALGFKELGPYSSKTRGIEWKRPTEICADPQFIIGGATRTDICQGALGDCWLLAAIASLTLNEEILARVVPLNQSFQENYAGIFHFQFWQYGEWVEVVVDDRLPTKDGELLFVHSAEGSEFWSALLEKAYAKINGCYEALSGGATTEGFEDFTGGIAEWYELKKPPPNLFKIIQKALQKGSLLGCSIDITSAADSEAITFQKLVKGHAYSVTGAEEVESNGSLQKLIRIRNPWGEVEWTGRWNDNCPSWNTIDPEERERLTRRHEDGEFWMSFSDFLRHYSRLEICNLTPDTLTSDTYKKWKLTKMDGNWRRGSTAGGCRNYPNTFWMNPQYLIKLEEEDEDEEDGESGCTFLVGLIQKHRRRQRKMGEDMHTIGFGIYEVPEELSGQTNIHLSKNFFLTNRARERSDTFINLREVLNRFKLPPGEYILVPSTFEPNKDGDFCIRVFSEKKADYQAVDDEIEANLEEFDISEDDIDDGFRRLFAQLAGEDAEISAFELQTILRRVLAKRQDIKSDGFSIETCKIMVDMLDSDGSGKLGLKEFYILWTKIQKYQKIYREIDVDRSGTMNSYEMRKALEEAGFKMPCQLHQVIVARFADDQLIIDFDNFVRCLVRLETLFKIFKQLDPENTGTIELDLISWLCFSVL", "T2 sequence (P04632 1-268 partner)": "T1 sequence (P04632 1-268 partner)", "assay": "Cleavage of purified recombinant p21cip1 by purified m-calpain", "type": "biochemical", "conditions": "purified recombinant p21^cip1 incubated with m-calpain", "method": "as §1"}},
  "data": [
    {"smiles": "CC(C)C[C@H](NC(=O)[C@H]1O[C@@H]1C(=O)O)C(=O)NCCCCN=C(N)N", "note": "(relative stereo) [E64d, trans-epoxysuccinyl-L-leucylamido (4-guanidino)-butane]", "values": [
      {"measurement": "proteolysis of p21^cip1 by μ-calpain (in words)", "setting": "μ-calpain", "value": "inhibited the proteolysis"},
      {"measurement": "proteolysis of p21^cip1 by m-calpain (in words)", "setting": "m-calpain", "value": "inhibited the proteolysis"}
    ]}
  ]
}
